The values that follow come from ChEMBL document CHEMBL2396546, “Australian marine sponge alkaloids as a new class of glycine-gated chloride channel receptor modulator” (Bioorg Med Chem, 2013).

SMILES strings stand for the structures.

What all share (type): cell-based
The target in assay [1] is T1, Glycine receptor subunit alpha-1 (Homo sapiens) (UniProt P23415).
T1 sequence (whole entry): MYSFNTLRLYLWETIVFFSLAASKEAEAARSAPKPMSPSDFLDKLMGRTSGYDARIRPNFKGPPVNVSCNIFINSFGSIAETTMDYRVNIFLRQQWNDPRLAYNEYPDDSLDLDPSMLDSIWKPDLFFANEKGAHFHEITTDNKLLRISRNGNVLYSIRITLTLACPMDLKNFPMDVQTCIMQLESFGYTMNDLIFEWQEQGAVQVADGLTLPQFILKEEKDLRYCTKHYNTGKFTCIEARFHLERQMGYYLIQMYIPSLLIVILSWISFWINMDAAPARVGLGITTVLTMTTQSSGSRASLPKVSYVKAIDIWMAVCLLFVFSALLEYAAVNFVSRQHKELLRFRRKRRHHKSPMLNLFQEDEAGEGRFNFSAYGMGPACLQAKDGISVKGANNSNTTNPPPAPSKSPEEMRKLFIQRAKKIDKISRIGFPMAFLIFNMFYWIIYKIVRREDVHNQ
The assay is described as follows: Modulation of recombinant GlyR-alpha1 (unknown origin) expressed in HEK293 cells assessed as inhibition of glycine-induced current at 1 uM by automated planar patch-clamp automated electrophysiology assay. On the technique in general: Patch clamp records ionic current or voltage across a cell membrane.

The target in assay [2] is T2, Glycine receptor subunit alpha-3 (Homo sapiens, UniProt O75311).
T2 sequence (O75311 whole entry): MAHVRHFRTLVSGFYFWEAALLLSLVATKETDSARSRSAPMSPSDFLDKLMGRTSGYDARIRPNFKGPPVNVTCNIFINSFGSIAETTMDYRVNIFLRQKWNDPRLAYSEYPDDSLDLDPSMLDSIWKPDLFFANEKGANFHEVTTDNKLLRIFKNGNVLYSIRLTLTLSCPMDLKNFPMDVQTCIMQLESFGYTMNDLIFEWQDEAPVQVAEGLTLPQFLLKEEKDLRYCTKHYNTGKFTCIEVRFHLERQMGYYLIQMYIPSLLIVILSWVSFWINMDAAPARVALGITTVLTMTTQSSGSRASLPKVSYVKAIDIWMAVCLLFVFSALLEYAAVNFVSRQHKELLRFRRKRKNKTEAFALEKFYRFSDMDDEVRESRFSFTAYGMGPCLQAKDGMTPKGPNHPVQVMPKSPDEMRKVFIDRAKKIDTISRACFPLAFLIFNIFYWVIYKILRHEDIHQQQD
As to the kind of experiment: Modulation of recombinant GlyR-alpha3 (unknown origin) expressed in HEK293 cells assessed as inhibition of glycine-induced current by automated planar patch-clamp automated electrophysiology assay.

The target in assay [3] is T3, Glycine receptor subunit alpha-1 (Homo sapiens, UniProt P23415).
T3 sequence (P23415 whole entry): T1 sequence (whole entry)
The assay is described as follows: Modulation of recombinant GlyR-alpha1 (unknown origin) expressed in HEK293 cells assessed as inhibition of glycine-induced current by automated planar patch-clamp automated electrophysiology assay.

For the molecule `CN1C(=N)N(C)[C@@]2(C1=O)c1[nH]c3ccccc3c1C[C@@]1(C(=O)N(C)C(=N)N1C)[C@@H]2c1c[nH]c2ccccc12`, in assay [1], the inhibition (commonly the relative decrease from the control value, in per cent) amounted to 126%. Further, the IC50 (in general, the midpoint of a concentration-inhibition curve) was above 300 µM in assay [2] and 25.9 µM in assay [3].

In the case of `CN1C(=O)/C(=C\c2c[nH]c3ccccc23)N(C)C1=O`, the IC50 in assay [2] was 67 µM; in assay [3], above 200 µM.

Regarding `CN1C(=O)NC(=O)/C1=C\c1c[nH]c2ccccc12`, the IC50 in assay [2] came out at 33.9 µM; in assay [3] it was 8.8 µM.
